Experimental data taken from ChEMBL document CHEMBL4138123, “Design, synthesis and biological evaluation of novel pyrazolochalcones as potential modulators of PI3K/Akt/mTOR pathway and inducers of apoptosis in breast cancer cells” (Eur J Med Chem, 2017).

Columns and labels:
Format in all cases: functional
[1] = tested on: OVCAR-3; assay: Cytotoxicity against human OVCAR3 cells assessed as cell growth at 0.01 uM after 48 hrs by sulforhodamine B assay relative to control; details: OVCAR-3, 48 h, read-out: Activity
[2] = tested on: SN12C; assay: Cytotoxicity against human SN12C cells assessed as growth inhibition after 48 hrs by sulforhodamine B assay
[3] = tested on: NCI-H322M; assay: Cytotoxicity against human NCI-H322M cells assessed as cell growth at 10 uM after 48 hrs by sulforhodamine B assay relative to control; details: read-out: Activity
[4] = tested on: OVCAR-4; assay: Cytotoxicity against human OVCAR4 cells assessed as cell growth at 0.1 uM after 48 hrs by sulforhodamine B assay relative to control; details: OVCAR-4, 48 h, read-out: Activity
[5] = tested on: T47D; assay: Cytotoxicity against human T47D cells assessed as cell growth at 10 uM after 48 hrs by sulforhodamine B assay relative to control; details: read-out: Activity
[6] = tested on: RPMI-8226; assay: Cytotoxicity against human RPMI8226 cells assessed as cell growth at 100 uM after 48 hrs by sulforhodamine B assay relative to control; details: RPMI-8226, 48 h, read-out: Activity
[7] = tested on: NCI/ADR-RES; assay: Cytotoxicity against human NCI/ADR-RES cells assessed as cell growth at 0.01 uM after 48 hrs by sulforhodamine B assay relative to control; details: read-out: Activity
[8] = tested on: SK-OV-3; assay: Cytotoxicity against human SKOV3 cells assessed as cell growth at 10 uM after 48 hrs by sulforhodamine B assay relative to control; details: SK-OV-3, 48 h, read-out: Activity
[9] = tested on: UACC-62; assay: Cytotoxicity against human UACC62 cells assessed as cell growth at 0.1 uM after 48 hrs by sulforhodamine B assay relative to control; details: UACC-62, 48 h, read-out: Activity
[10] = tested on: TK-10; assay: Cytotoxicity against human TK10 cells assessed as cell growth at 100 uM after 48 hrs by sulforhodamine B assay relative to control; details: TK-10, 48 h, read-out: Activity
[11] = tested on: OVCAR-5; assay: Cytotoxicity against human OVCAR5 cells assessed as cell growth at 1 uM after 48 hrs by sulforhodamine B assay relative to control; details: OVCAR-5, 48 h, read-out: Activity
[12] = tested on: DU-145; assay: Cytotoxicity against human DU145 cells assessed as cell growth at 0.1 uM after 48 hrs by sulforhodamine B assay relative to control; details: DU-145, 48 h, read-out: Activity
[13] = tested on: OVCAR-3; assay: Cytotoxicity against human OVCAR3 cells assessed as cell growth at 10 uM after 48 hrs by sulforhodamine B assay relative to control; details: OVCAR-3, 48 h, read-out: Activity
[14] = tested on: NCI-H226; assay: Cytotoxicity against human NCI-H226 cells assessed as cell growth at 1 uM after 48 hrs by sulforhodamine B assay relative to control; details: NCI-H226, 48 h, read-out: Activity
[15] = tested on: M14; assay: Cytotoxicity against human M14 cells assessed as cell growth at 1 uM after 48 hrs by sulforhodamine B assay relative to control; details: M14, 48 h, read-out: Activity
[16] = tested on: Hs-578T; assay: Cytotoxicity against human Hs 578T cells assessed as growth inhibition after 48 hrs by sulforhodamine B assay
[17] = tested on: UO-31; assay: Cytotoxicity against human UO31 cells assessed as cell growth at 10 uM after 48 hrs by sulforhodamine B assay relative to control; details: UO-31, 48 h, read-out: Activity
[18] = tested on: HL-60(TB); assay: Cytotoxicity against human HL-60(TB) cells assessed as cell growth at 0.1 uM after 48 hrs by sulforhodamine B assay relative to control; details: HL-60, 48 h, read-out: Activity
[19] = tested on: BT-549; assay: Cytotoxicity against human BT549 cells assessed as cell growth at 10 uM after 48 hrs by sulforhodamine B assay relative to control; details: BT-549, 48 h, read-out: Activity
[20] = tested on: KM12; assay: Cytotoxicity against human KM12 cells assessed as growth inhibition after 48 hrs by sulforhodamine B assay; details: KM12, 48 h
[21] = tested on: 786-0; assay: Cytotoxicity against human 786-0 cells assessed as cell growth at 1 uM after 48 hrs by sulforhodamine B assay relative to control; details: 786-0, 48 h, read-out: Activity
[22] = tested on: UACC-257; assay: Cytotoxicity against human UACC257 cells assessed as cell growth at 0.1 uM after 48 hrs by sulforhodamine B assay relative to control; details: UACC-257, 48 h, read-out: Activity
[23] = tested on: UACC-62; assay: Cytotoxicity against human UACC62 cells assessed as cell growth at 100 uM after 48 hrs by sulforhodamine B assay relative to control; details: UACC-62, 48 h, read-out: Activity
[24] = tested on: SK-MEL-5; assay: Cytotoxicity against human SK-MEL-5 cells assessed as cell growth at 100 uM after 48 hrs by sulforhodamine B assay relative to control; details: SK-MEL-5, 48 h, read-out: Activity
[25] = tested on: HCC 2998; assay: Cytotoxicity against human HCC2998 cells assessed as cell growth at 1 uM after 48 hrs by sulforhodamine B assay relative to control; details: HCC 2998, 48 h, read-out: Activity
[26] = tested on: SK-OV-3; assay: Cytotoxicity against human SKOV3 cells assessed as cell growth at 1 uM after 48 hrs by sulforhodamine B assay relative to control; details: SK-OV-3, 48 h, read-out: Activity
[27] = tested on: SK-MEL-28; assay: Cytotoxicity against human SK-MEL-28 cells assessed as cell growth at 100 uM after 48 hrs by sulforhodamine B assay relative to control; details: SK-MEL-28, 48 h, read-out: Activity
[28] = tested on: RPMI-8226; assay: Cytotoxicity against human RPMI8226 cells assessed as cell growth at 1 uM after 48 hrs by sulforhodamine B assay relative to control; details: RPMI-8226, 48 h, read-out: Activity
[29] = tested on: UACC-257; assay: Cytotoxicity against human UACC257 cells assessed as cell growth at 1 uM after 48 hrs by sulforhodamine B assay relative to control; details: UACC-257, 48 h, read-out: Activity
[30] = tested on: PC-3; assay: Cytotoxicity against human PC3 cells assessed as cell growth at 10 uM after 48 hrs by sulforhodamine B assay relative to control; details: PC-3, 48 h, read-out: Activity
[31] = tested on: SF-539; assay: Cytotoxicity against human SF539 cells assessed as cell growth at 100 uM after 48 hrs by sulforhodamine B assay relative to control; details: SF-539, 48 h, read-out: Activity
[32] = tested on: K562; assay: Cytotoxicity against human K562 cells assessed as cell growth at 10 uM after 48 hrs by sulforhodamine B assay relative to control; details: K562, 48 h, read-out: Activity
[33] = tested on: UACC-257; assay: Cytotoxicity against human UACC257 cells assessed as cell growth at 10 uM after 48 hrs by sulforhodamine B assay relative to control; details: UACC-257, 48 h, read-out: Activity
[34] = tested on: KM12; assay: Cytotoxicity against human KM12 cells assessed as cell growth at 100 uM after 48 hrs by sulforhodamine B assay relative to control; details: KM12, 48 h, read-out: Activity
[35] = tested on: OVCAR-3; assay: Cytotoxicity against human OVCAR3 cells assessed as cell growth at 100 uM after 48 hrs by sulforhodamine B assay relative to control; details: OVCAR-3, 48 h, read-out: Activity
[36] = tested on: HCC 2998; assay: Cytotoxicity against human HCC2998 cells assessed as cell growth at 0.1 uM after 48 hrs by sulforhodamine B assay relative to control; details: HCC 2998, 48 h, read-out: Activity

In the case of `COc1ccc(-c2cc(/C=C/C(=O)c3cc(OC)c(OC)c(OC)c3)[nH]n2)cc1OC`, the growth at 0.01 µM [1] is reported as 99%, the GI50 [2] is reported as 1.77 µM and the LC50 [2] is reported as 8.26 µM. The TGI [2] was 3.83 µM, the growth at 10 µM [3] was -23% and the growth at 0.1 µM [4] was 73%. It also gave a growth at 10 µM [5] of -37%, a growth at 100 µM [6] of -31% and a growth at 0.01 µM [7] of 97%. For the same molecule, the growth at 10 µM [8] was 37%, the growth at 0.1 µM [9] was 98% and the growth at 100 µM [10] was -94%. It also gave a growth at 1 µM [11] of 81%, a growth at 0.1 µM [12] of 103% and a growth at 10 µM [13] of -85%. The growth at 1 µM [14] was 73%, the growth at 1 µM [15] was 91% and the GI50 [16] was 2.91 µM. It also gave an LC50 [16] greater than 100 µM, a TGI [16] of 22.1 µM and a growth at 10 µM [17] of -95%. It also gave a growth at 0.1 µM [18] of 93%, a growth at 10 µM [19] of -80% and a GI50 [20] of 0.78 µM. It also gave an LC50 [20] of 5.68 µM, a TGI [20] of 2.27 µM and a growth at 1 µM [21] of 81%. It also gave a growth at 0.1 µM [22] of 97%, a growth at 100 µM [23] of -80% and a growth at 100 µM [24] of -98%. It also gave a growth at 1 µM [25] of 105%, a growth at 1 µM [26] of 87% and a growth at 100 µM [27] of -82%. The growth at 1 µM [28] was 11%, the growth at 1 µM [29] was 89% and the growth at 10 µM [30] was 1%. The growth at 100 µM [31] was -87%, the growth at 10 µM [32] was -1% and the growth at 10 µM [33] was -64%. For the same molecule, the growth at 100 µM [34] was -64%, the growth at 100 µM [35] was -83% and the growth at 0.1 µM [36] was 100%.
